In ChEMBL document CHEMBL1201862, “PubChem BioAssay data set” (2004):
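48-hour exposure; five concentrations; linearly interpolated endpoints. The concentration for 50% growth inhibition is given as GI50.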 Calls of active or inactive are those of the source. Rule as the data show it: active = GI50 up to about 1.1 µM and inactive = higher.

What was measured:
Test in all cases: DTP human tumour cell line panel, 48 h
MOLT-4 = system: MOLT-4
SR = system: SR
UACC-257 = system: UACC-257
LXFL 529 = system: LXFL 529
EKVX = system: EKVX
HOP-92 = system: HOP-92
NCI-H226 = system: NCI-H226
HOP-62 = system: HOP-62
K562 = system: K562
OVCAR-5 = system: OVCAR-5
A549 = system: A549
CCRF-CEM = system: CCRF-CEM
SF-268 = system: SF-268
SK-MEL-28 = system: SK-MEL-28
DMS-273 = system: DMS-273
TK-10 = system: TK-10
A498 = system: A498
M19-MEL = system: M19-MEL
UO-31 = system: UO-31
SK-MEL-2 = system: SK-MEL-2
HL-60 = system: HL-60
KM-20L2 = system: KM-20L2
SW-620 = system: SW-620
HOP-18 = system: HOP-18
RXF 393 = system: RXF 393
U-251 = system: U-251
786-0 = system: 786-0
OVCAR-4 = system: OVCAR-4
NCI-H460 = system: NCI-H460
OVCAR-8 = system: OVCAR-8
M14 = system: M14
UACC-62 = system: UACC-62
LOX IMVI = system: LOX IMVI
SNB-78 = system: SNB-78
NCI-H23 = system: NCI-H23
COLO 205 = system: COLO 205
RXF 631 = system: RXF 631
DMS-114 = system: DMS-114
SF-539 = system: SF-539
CAKI-1 = system: CAKI-1
SK-MEL-5 = system: SK-MEL-5
SN12C = system: SN12C
KM12 = system: KM12
HCT-15 = system: HCT-15
XF498 = system: XF498
HT-29 = system: HT-29
SNB-19 = system: SNB-19
HCC 2998 = system: HCC 2998
ACHN = system: ACHN
DLD-1 = system: DLD-1
SK-OV-3 = system: SK-OV-3
SNB-75 = system: SNB-75
Malme-3M = system: Malme-3M
IGROV-1 = system: IGROV-1
SF-295 = system: SF-295
RPMI-8226 = system: RPMI-8226
HCT-116 = system: HCT-116
NCI-H522 = system: NCI-H522

Measured: GI50

COc1ccccc1NC(=O)C(=O)C(c1cnc2ccc([N+](=O)[O-])cc2n1)[N+](=O)[O-] (stereo not drawn)
> 100 µM: HCT-15
inactive: MOLT-4 32.8 µM | SR 45.6 µM | UACC-257 > 100 µM | LXFL 529 75 µM | EKVX > 100 µM | HOP-92 > 100 µM | NCI-H226 > 100 µM | HOP-62 > 100 µM | K562 31.5 µM | OVCAR-5 > 100 µM | A549 > 100 µM | CCRF-CEM 26 µM | SF-268 > 100 µM | SK-MEL-28 > 100 µM | DMS-273 64 µM | TK-10 > 100 µM | A498 > 100 µM | M19-MEL > 100 µM | UO-31 78 µM | SK-MEL-2 > 100 µM | HL-60 19.5 µM | KM-20L2 > 100 µM | SW-620 > 100 µM | HOP-18 > 100 µM | RXF 393 > 100 µM | U-251 > 100 µM | 786-0 > 100 µM | OVCAR-4 > 100 µM | NCI-H460 > 100 µM | OVCAR-8 > 100 µM | M14 78.7 µM | UACC-62 53 µM | LOX IMVI > 100 µM | SNB-78 > 100 µM | NCI-H23 > 100 µM | COLO 205 38.3 µM | RXF 631 39.2 µM | DMS-114 17.9 µM | SF-539 > 100 µM | CAKI-1 > 100 µM | SK-MEL-5 > 100 µM | SN12C > 100 µM | KM12 > 100 µM | XF498 > 100 µM | HT-29 > 100 µM | SNB-19 > 100 µM | HCC 2998 92 µM | ACHN 87.3 µM | DLD-1 > 100 µM | SK-OV-3 > 100 µM | SNB-75 > 100 µM | Malme-3M > 100 µM | IGROV-1 > 100 µM | SF-295 > 100 µM | RPMI-8226 25.2 µM | HCT-116 > 100 µM | NCI-H522 8.71 µM
